The target of the test is T1, human S1P5 (Homo sapiens, UniProt Q9H228).
T1 construct: host or cells: recombinant CHEM cells
Nature of the test: Calcium flux assay, antagonist assay format (S1P receptor activity assay). The class given is cell-based. On the procedure: Agonist percentage activation determinations were obtained by assaying sample compounds and referencing the Emax control for each receptor profiled. Antagonist percentage inhibition determinations were obtained by assaying sample compounds and referencing the control EC80 wells for each receptor profiled.
Sample compounds were plated in an eight-point, four-fold dilution series in duplicate with a top concentration of 10 μM. The concentrations described here reflect the final concentration of the compounds during the antagonist assay.
Using the EC80 values determined during the agonist assay, stimulated all pre-incubated sample compound and reference antagonist (if applicable) wells with EC80 of reference agonist.

For 1 compound, IC50 results are on record in patent US9765016B2, “S1P modulating agents” (BIOGEN MA INC., priority 2013, dated 2017).

T1 sequence (Q9H228 whole entry): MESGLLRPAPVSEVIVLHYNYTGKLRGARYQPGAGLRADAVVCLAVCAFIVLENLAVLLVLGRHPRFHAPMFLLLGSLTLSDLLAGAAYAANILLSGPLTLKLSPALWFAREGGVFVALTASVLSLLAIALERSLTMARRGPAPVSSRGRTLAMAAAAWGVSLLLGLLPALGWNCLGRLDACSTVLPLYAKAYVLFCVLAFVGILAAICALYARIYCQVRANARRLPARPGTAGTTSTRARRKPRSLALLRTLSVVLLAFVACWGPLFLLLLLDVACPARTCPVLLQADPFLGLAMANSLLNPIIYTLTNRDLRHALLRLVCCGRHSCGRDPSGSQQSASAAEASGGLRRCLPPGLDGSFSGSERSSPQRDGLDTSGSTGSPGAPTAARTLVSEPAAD

A word on the IC50: it is the concentration that gives 50% inhibition. `Cc1cc(O[C@H]2CC[C@@H]([Si](C)(C)C)CC2)c(CN2CCC(C(=O)O)CC2)c2ccccc12` [Example 25, 1-((4-methyl-2-((cis-4-(trimethylsilyl)cyclohexyl)oxy)naphthalen-1-yl)methyl)piperidine-4-carboxylic acid]: the IC50 is at most 100 nM.
